In doi:10.1101/049825v1, “Htm1p-Pdi1p is a folding sensitive mannosidase that marks N-glycoproteins for ER-associated protein degradation” (biorxiv, 2016):

Target: T1, Htm1p-Pdi1p (Saccharomyces cerevisiae, UniProt P38888)
T1 construct: gene MNL1; full-length HTM1 coding region with C-terminal 3xFLAG-HDEL tag (released by TEV), chromosomal TDH3 promoter, strain yJW1820; co-purified with endogenous Pdi1p, near 1:1; with Protein disulfide-isomerase
T1 sequence (P38888 21-796): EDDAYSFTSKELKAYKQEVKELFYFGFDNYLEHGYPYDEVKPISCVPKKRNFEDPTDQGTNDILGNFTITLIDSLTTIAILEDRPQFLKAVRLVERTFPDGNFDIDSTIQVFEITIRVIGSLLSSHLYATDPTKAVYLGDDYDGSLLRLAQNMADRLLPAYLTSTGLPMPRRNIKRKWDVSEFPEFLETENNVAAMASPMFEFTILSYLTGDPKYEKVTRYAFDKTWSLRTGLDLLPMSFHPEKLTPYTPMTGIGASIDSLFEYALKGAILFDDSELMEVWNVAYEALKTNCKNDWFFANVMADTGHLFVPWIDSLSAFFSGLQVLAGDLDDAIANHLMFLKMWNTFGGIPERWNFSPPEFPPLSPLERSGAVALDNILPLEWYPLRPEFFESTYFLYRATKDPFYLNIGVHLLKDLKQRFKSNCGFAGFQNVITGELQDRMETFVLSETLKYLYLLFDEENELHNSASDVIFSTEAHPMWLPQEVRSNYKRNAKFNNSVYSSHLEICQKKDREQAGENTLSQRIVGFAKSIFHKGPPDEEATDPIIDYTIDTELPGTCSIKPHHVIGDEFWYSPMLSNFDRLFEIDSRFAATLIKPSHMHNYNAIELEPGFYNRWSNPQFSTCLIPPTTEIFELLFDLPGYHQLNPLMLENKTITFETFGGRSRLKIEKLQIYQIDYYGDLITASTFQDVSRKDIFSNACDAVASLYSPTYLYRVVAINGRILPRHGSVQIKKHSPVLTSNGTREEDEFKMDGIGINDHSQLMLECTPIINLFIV
T1 sequence (P17967 29-522 partner): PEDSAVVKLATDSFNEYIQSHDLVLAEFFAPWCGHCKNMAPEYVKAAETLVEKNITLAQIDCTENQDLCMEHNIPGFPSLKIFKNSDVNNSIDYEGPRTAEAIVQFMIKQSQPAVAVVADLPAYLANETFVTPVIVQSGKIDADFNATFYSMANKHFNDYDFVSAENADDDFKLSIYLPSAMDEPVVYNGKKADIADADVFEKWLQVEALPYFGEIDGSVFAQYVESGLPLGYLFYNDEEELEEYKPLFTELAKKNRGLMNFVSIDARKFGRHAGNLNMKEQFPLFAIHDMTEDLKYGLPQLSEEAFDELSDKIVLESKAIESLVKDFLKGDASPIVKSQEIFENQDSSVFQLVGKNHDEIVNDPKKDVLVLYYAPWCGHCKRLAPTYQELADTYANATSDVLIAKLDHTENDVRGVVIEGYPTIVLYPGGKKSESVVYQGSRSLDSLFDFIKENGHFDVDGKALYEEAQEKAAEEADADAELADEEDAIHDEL
Assay: MALDI-TOF MS glycan profiling of CPY* (Man8 to Man7 conversion)
Type: biochemical
Settings: glycoprotein substrate CPY* 2 μM, enzyme 0.1 μM, 2 mM CaCl2, pH 7.0, 30°C, 20 h; inhibitor concentration not given

Structure (SMILES): OC[C@H]1NC[C@@H](O)[C@@H](O)[C@@H]1O [1-deoxymannojirimycin]
- MALDI-TOF MS glycan profiling of CPY* (Man8 to Man7 conversion): Both chemicals inhibited the generation of Man7 on CPY*
